Laboratory results as given in US20160326098A1, “Pharmaceutically Active Compound for Use as Anti-inflammatory Agent” (Pax Forschung GmbH, priority 2013, published 2016).

How the values were obtained:
[1] = system: xanthine oxidase enzyme; assay: Xanthine oxidase enzyme activity in tissue, rats with TNBS-induced colitis; type: in vivo; details: gastric and colon tissue, 1.11 mmol/kg, FIGS. 33a/33b
Procedure: Colonic inflammation was induced by intracolonic administration of TNBS (2,4,6-trinitrobenzenesulfonic acid) (40 mg/kg in 0.25 ml of 25% aqueous ethanol) through an 8-cm-long soft plastic catheter under transient diethylether anesthesia. In the sham-operated groups, only the vehicle for TNBS was administered. The animals were deprived of food, but not water, for 12 h before the enemas.
The XOR activity was determined in the ultrafiltered, concentrated supernatant by fluorometric kinetic assay based on the conversion of pterine to isoxanthopterine in the presence (total XOR) or absence (xanthine oxidase activity) of the electron acceptor methylene blue.
The above-described clinical studies were repeated with animals having colitis which was induced as described above. […] Two days after the enema the effects of the treatment were determined by measurement of body weight, blood gas analysis and biopsy. […] Surgery was performed to allow registration of the hemodynamic parameters at 1 h intervals for 6 h (cardiac output [CO] data were measured only at the end of the experiments). […] In addition, fluorescence confocal endomicroscopy was performed to examine the microvasculature and morphologic changes of the mucosa of the distal colon, and full-thickness tissue samples and venous blood samples were taken to determine the biochemical changes in the colon and plasma.

[2] = Body weight, rats with gastric injury without inflammation; type: in vivo; details: 1.11 mmol/kg force-fed, one day after, FIG. 17
Procedure: The medicinal activity of the compound according to the invention and the pharmaceutical composition according to the invention was tested in a series of experiments performed on rats. The experiments were performed on male Sprague-Dawley rats (280-320 g) housed in plastic cages in a thermoneutral environment (21° C.±2° C.) with a 12 h dark-light cycle. The animals, fed on a normal diet with tap water ad libitum, were randomly allocated into experimental groups according to the feeding protocols.
Further experiments regarding the effect of a compound of formula (I) and a pharmaceutical composition comprising a compound of formula (I), respectively, on gastric injury without inflammation were conducted on rats. 15 animals were randomly allocated into three groups. Group H (n=5) served as sham-operated controls. Samples of all animals were drawn on day 1 of the clinical tests. On day 2 the animals of group I (n=5) were force-fed acetylsalicylic acid (ASS) (1.11 mmol/kg body weight). […] Fluorescence confocal endomicroscopy was performed to examine the microvasculature and morphologic changes of the mucosa of the distal colon, and full-thickness tissue samples and venous blood samples were taken to determine the biochemical changes in the colon and plasma. The effects were determined by way of measurement of body weight, blood gas analysation and biopsy. […]

[3] = system: nitrite/nitrate (NOx); assay: Nitrite/nitrate level, colitis animals, comparison with GM-20 (FIG. 35); type: in vivo, rats; details: 1.11 mmol/kg body weight, vs sham control group P
Procedure: The levels of plasma nitrite/nitrate (NOx), stable end products of NO were measured by the Griess reaction. This assay depends on the reduction of nitrate to nitrite, which is then converted into a colored azo dye compound that is detected spectrophotometrically at 540 nm.
The above-described clinical studies were repeated with animals having colitis which was induced as described above. 20 animals (rats) were randomly divided into four groups, wherein group L served as sham-operated control, having no colitis, group M served as second control having colitis but receiving no further treatment, group N having colitis and being treated with 1.11 mmol/kg body weight of ASS and group O having colitis and being treated with 1.11 mmol/kg of the compound according to the invention. One day after the animals received the enema with TNBS (40 mg/kg i.c.), wherein the animals of group L only received the respective solvent, the animals of group N and O were treated with ASS and the compound according to the invention, respectively. The other animals only received the respective solvent again. Two days after the enema the effects of the treatment were determined by measurement of body weight, blood gas analysis and biopsy. […] Surgery was performed to allow registration of the hemodynamic parameters at 1 h intervals for 6 h (cardiac output [CO] data were measured only at the end of the experiments). […] In addition, fluorescence confocal endomicroscopy was performed to examine the microvasculature and morphologic changes of the mucosa of the distal colon, and full-thickness tissue samples and venous blood samples were taken to determine the biochemical changes in the colon and plasma.
The tests were conducted according to the above described protocol. […] Comparative compound GM-20 is described in the state of the art as being suitable for the therapeutic treatment pathologic disorders characterized by degranulation of the mast cells caused by immunogenic hyperstimulation (see U.S. Pat. No. 5,506,224) The nitrite/nitrate level was measured as described above.

[4] = system: myeloperoxidase (MPO); assay: Tissue myeloperoxidase activity, mice with gastric injury without inflammation; type: in vivo; details: gastric and duodenal tissue, one day after treatment with 1.11 mmol/kg, vs control group A, FIGS. 5a/5b
Procedure: […] The homogenate was centrifuged at 4° C. for 20 minutes at 24,000 g, and the supernatant was loaded into centrifugal tubes (Amicon Centricon-100; 100,000-molecular-weight cutoff ultrafilter, Millipore Corporation, Bedford, Mass.). The activity of myeloperoxidase (MPO) was measured on the pellet of the homogenate.
The activity of MPO as a marker of tissue leukocyte infiltration was measured on the pellet of the homogenate. Briefly, the pellet was resuspended in K3PO4 buffer (0.05 M; pH 6.0) containing 0.5% […]. […] The reaction led to the hydrogen peroxide-dependent oxidation of tetramethylbenzidine, which could be detected spectrophotometrically at 450 nm (UV-1601 spetrophotometer; Shimadzu, Kyoto, Japan). Myeloperoxidase activities were measured at 37° C.; the reaction was stopped after 5 minutes by the addition of 0.2 ml of H2SO4 (2 M), and the resulting data were referred to the protein content.
First experiments regarding the effect of the compound of formula (I) and a pharmaceutical composition comprising the compound of formula (I) (clear aqueous solution of compound of formula (I) at pH 4.8), respectively, on gastric injury without inflammation were conducted on mice. […] The effects were determined by way of measurement of body weight, blood gas analysation and biopsy. […]

SMILES	activity of xanthine oxidase enzyme [1]	change in body weight [2]	nitrite/nitrate level [3]	myeloperoxidase (MPO) activity [4]
CC(=O)Oc1ccccc1C(=O)O [ASS, acetylsalicylic acid, reference compound]	only a slight decrease in activity	severe loss of body weight	increased nitrite/nitrate level	increased
CC(=O)Oc1ccccc1C(=O)NC(CO)(CO)CO [compound according to the invention]	enzyme activity comparable to that of healthy animals	only showed a minor loss in body weight	did not lead to an increase in the nitrite/nitrate level	does not further enhance the inflammatory processes
